A short description of data set [1]: Gln and CBD concentration in the synovial fluid 8 hours after oral administration. Conditions: 8 h after oral administration of 15 mg/Kg CBD + 500 mg/Kg Gln. The protocol: (§1) Three different water-soluble CBD oral formulae were tested, F #01 (20%), L #02 (2.5% CBD) and I #03 (20% CBD), and administered at 15 mg/Kg rat.
(§2) The three formulae were tested in combination with 500 mg/Kg Glucosamine (Gln).
(§3) The total administered volume was 10 mL/Kg (CBD+Gln).
(§4) The trial was performed on Sprague Dawley male rat (n=3/group).
(§5) A single dose containing CBD and Gln was provided PO at t=0.
Gln concentration in the synovial fluid was examined 8 hours after oral administration.

The nature of another data set: in vivo. Conditions: male, Sprague Dawley, rat. Here is the method:
as §1, §2, §3, §4, §5
CBD and Gln plasma concentrations were examined 1, 4 and 8 hours following a single administration.

Take `C=C(C)[C@@H]1CCC(C)=C[C@H]1c1c(O)cc(CCCCC)cc1O` [CBD, Cannabidiol]: in data set [1], the “CBD in the synovial fluid” value is “No CBD was detected”.
As for `N[C@H]1C(O)O[C@H](CO)[C@@H](O)[C@@H]1O` (some centres unmarked) [Gln, Glucosamine], the “decrease of Gln plasma concentration from the 4 h point” value in the data set “in vivo” came to 94.0%. In addition, in “in vivo” (po, 500 mg/kg), the concentration at 1 h was 2.04 ng/mL, the concentration at 4 h came to 134 ng/mL and the concentration at 8 h stood at 8 ng/mL.

Source of the values: US20210275556A1, “Cannabidiol Combination Compositions” (Companion Sciences. LLC, priority 2018, published 2021).
